Measurements from patent US20240116946A1 (Gilead Sciences, Inc., priority 2022, published 2024).

Tests used:
[1] = molecular target: recombinant SARS-CoV-2 Main protease (Mpro) (Severe acute respiratory syndrome coronavirus 2 (2019-nCoV) (SARS-CoV-2), UniProt P0DTD1); test: Cov Mpro Biochemical IC50 Assay; conditions: recombinant SARS-CoV-2 Mpro 7.5 nM, fluorogenic peptide substrate 40 μM; read-out: MPro IC50
SARS-CoV-2 main protease = SARS-CoV-2 main protease (Severe acute respiratory syndrome coronavirus 2 (2019-nCoV) (SARS-CoV-2), UniProt P0DTD1); test: activity comparison of separated atropisomers (assay not given); conditions: Isomer 1 versus Isomer 2 after chiral SFC separation; used to assign stereochemistry by analogy to Example 438
SARS-CoV-2-NLuc = test: microbe, parasite or virus in culture; format: cell-based, SARS Coronavirus 2; conditions: read-out: MPro EC50

SMILES | IC50 [1] [nM] | relative activity of the two separated isomers (SARS-CoV-2 main protease) | EC50 (SARS-CoV-2-NLuc) [nM]
COc1ccc(Cl)c(-c2ccc3c(=O)n(-c4cncc5ccccc45)c(=O)[nH]c3c2)c1 (single isomer, unassigned) [Example 475, 7-(2-chloro-5-methoxy-phenyl)-3-(4-isoquinolyl)-1H-quinazoline-2,4-dione] | 17.1 | more active isomer | 28.5
Cn1cnc(Cn2c(=O)n(-c3cncc4ccccc34)c(=O)c3sc(-c4ccccc4Cl)cc32)n1 (single isomer, unassigned) [Example 477, 6-(2-chlorophenyl)-3-(4-isoquinolyl)-1-[(1-methyl-1,2,4-triazol-3-yl)methyl]thieno[3,2-d]pyrimidine-2,4-dione] | 58 | more active isomer | 165
COc1ccc2cncc(-n3c(=O)[nH]c4cc(-c5ccccc5Cl)sc4c3=O)c2c1 (single isomer, unassigned) [Example 440, 6-(2-chlorophenyl)-3-(6-methoxyisoquinolin-4-yl)thieno[3,2-d]pyrimidine-2,4(1H,3H)-dione] | < 3.94 | more active isomer | 13.4
O=c1[nH]c2cc(-c3ccccc3Cl)sc2c(=O)n1-c1cncc2ccc(N3CCOCC3)cc12 (single isomer, unassigned) [Example 442, 6-(2-chlorophenyl)-3-(6-morpholinoisoquinolin-4-yl)thieno[3,2-d]pyrimidine-2,4(1H,3H)-dione] | < 3.43 | more active isomer | 12.3
COc1ccc(Cl)c(-c2cc3[nH]c(=O)n(-c4cncc5ccccc45)c(=O)c3s2)c1 (single isomer, unassigned) [Example 465, 6-(2-chloro-5-methoxyphenyl)-3-(isoquinolin-4-yl)thieno[3,2-d]pyrimidine-2,4(1H,3H)-dione] | < 3.56 | more active isomer | 5.23
Cn1cc(-c2cccc(Cl)c2-c2cc3[nH]c(=O)n(-c4cncc5ccccc45)c(=O)c3s2)c(C(F)(F)F)n1 (single isomer, unassigned) [Example 447, 6-(2-chloro-6-(1-methyl-3-(trifluoromethyl)-1H-pyrazol-4-yl)phenyl)-3-(isoquinolin-4-yl)thieno[3,2-d]pyrimidine-2,4(1H,3H)-dione] | 4.21 | more active isomer | 6.58
